Source: US20090099195A1 (ASTRAZENECA AB, priority 2007, published 2009)

Legend:
[1] = biological target: T1, hP2X3 (human Purinergic P2X receptors subtype 3), clone B (Homo sapiens, UniProt P56373); test: hP2X3 FLIPR calcium (Fluo-4) antagonist assay, clone B; details: Human P2X3 FLIPR Clone B IC50 (nM), RLE cells expressing hP2X3 clone B (NM_002559); agonist 500 nM α,β-methylene-ATP
T1 sequence (P56373 1-397): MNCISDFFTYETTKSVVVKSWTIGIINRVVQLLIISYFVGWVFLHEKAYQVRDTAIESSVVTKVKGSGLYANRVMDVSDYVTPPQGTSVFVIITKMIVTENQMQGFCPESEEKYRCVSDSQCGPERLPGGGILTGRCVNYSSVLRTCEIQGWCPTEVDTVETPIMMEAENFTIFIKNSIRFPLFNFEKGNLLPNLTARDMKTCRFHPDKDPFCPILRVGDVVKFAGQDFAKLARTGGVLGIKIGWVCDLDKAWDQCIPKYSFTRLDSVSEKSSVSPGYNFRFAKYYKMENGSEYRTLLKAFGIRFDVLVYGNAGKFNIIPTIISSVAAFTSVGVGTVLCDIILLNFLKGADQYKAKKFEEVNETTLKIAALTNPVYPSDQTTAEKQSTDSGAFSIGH

[2] = biological target: T2, hP2X3 (human Purinergic P2X receptors subtype 3), clone A (Homo sapiens, UniProt P56373); test: hP2X3 FLIPR calcium (Fluo-4) antagonist assay, clone A; details: Human P2X3 FLIPR Clone A Mean IC50 (nM), RLE cells expressing hP2X3 clone A (AB016608); agonist 500 nM α,β-methylene-ATP
T2 sequence (P56373 1-397): T1 sequence (P56373 1-397)
Description: The assay used a calcium indicator dye (Fluo-4) that emits fluorescence, the intensity of which is related to the concentration of calcium that entered the cell when P2X3 was activated and the channel opened. Activation of hP2X3 or rat P2X3 and rat P2X2/3 (from the coexpression of rat P2X3 and rat P2×2) is elicited the by P2X3 agonist α,β methylene-ATP (Sigma M6517), and the resulting fluorescence is measured with a FLIPR II™ instrument (Molecular Devices). Compounds are tested for their ability to inhibit the agonist-induced fluorescent signal.
For the rat P2X2/3 HEK-TREX cells, induction of the rat P2X3 expression is used to generate the rat P2X2/3 channels in HEK-TREX cells and performed by addition of 1 μg/mL tetracycline (Invitrogen) 24 h prior to compounds testing to the HEK-TREX expressing the rat P2X2 constitutively. On the day of the experiment, the cells and test compounds are prepared as follows. […] After preparing the compounds, the medium is removed from the cell plates by inversion. A loading solution of 30 μL assay buffer containing 4 μM of the calcium indicator dye FLUO-4 AM (Molecular Probes F14202) is added to each well using a Multidrop (Labsystems). […] The incubation is terminated by washing the cells four times in assay buffer using a Skatron Embla (Molecular Devices), and 25 μL of assay buffer was left in each well. Cell plates are then transferred to the FLIPR. Experiments are initiated by measuring a baseline fluorescence reading for 10 seconds, followed by the addition of 12.5 μL of cpds and data sampling for a total 280 seconds. The experiments are terminated by addition of 12.5 μL of a reference agonist (500 nM α,β-methylene-ATP) or buffer, producing a final assay volume of 50 μL followed by data sampling for an additional 280 seconds.
In P2X3 antagonist experiments (human and rat assays) data are analysed as normalised maximal peak fluorescence monitored following agonist addition and calculated as percent of relative fluorescent counts from control agonist. The dose-response antagonist inhibition curves are analyzed in a 4-parameter sigmoidal fit using a non-linear curve-fitting program (XLfit version 5.0.6, ID Business Solutions Limited, Guildford, UK).

Work on CC(=O)c1ccc(CC2CCCN2c2nc(N3CCN(C(C)=O)CC3)nc3c2CN(C(C)C)C3=O)cc1 (stereo not drawn) [Example 294, 4-[2-(4-acetylbenzyl)pyrrolidin-1-yl]-2-(4-acetylpiperazin-1-yl)-6-(1-methylethyl)-5,6-dihydro-7H-pyrrolo[3,4-d]pyrimidin-7-one] yielded an IC50 [1] of 980 nM and an IC50 [2] of 1840 nM.
CC(=O)N1CCN(c2nc(N[C@H](C)c3ccc(OC(C)C)c(F)c3)c3c(n2)C(=O)N(C(C)C)C3)CC1 [Example 190, (R)-2-(4-acetylpiperazin-1-yl)-4-(1-(3-fluoro-4-isopropoxyphenyl)ethylamino)-6-isopropyl-5H-pyrrolo[3,4-d]pyrimidin-7(6H)-one] showed an IC50 [1] of 44 nM and an IC50 [2] of 47.2 nM.
With CCOc1ccc([C@@H](CO)Nc2nc(N3CCN(C(C)=O)CC3)nc3c2CN(C(C)C)C3=O)cc1 [Example 189, (S)-2-(4-acetylpiperazin-1-yl)-4-(1-(4-ethoxyphenyl)-2-hydroxyethylamino)-6-isopropyl-5H-pyrrolo[3,4-d]pyrimidin-7(6H)-one] the IC50 [1] was 79 nM and the IC50 [2] was 76.6 nM.
CCN(c1nc(N2CCN(C(C)=O)CC2)nc2c1CN(C(C)C)C2=O)C(C)c1ccc2ncccc2c1 (single isomer, unassigned) [Example 258, 2-(4-acetylpiperazin-1-yl)-4-(ethyl(1-(quinolin-6-yl)ethyl)amino)-6-isopropyl-5H-pyrrolo[3,4-d]pyrimidin-7(6H)-one] gave an IC50 [1] of 250 nM and an IC50 [2] of 232 nM.
In the case of CC(=O)N1CCN(c2nc3c(c(N4CCCC4c4ccc(F)cc4)n2)CN(C(C)C)C3=O)CC1 (stereo not drawn) [Example 292, 2-(4-acetylpiperazin-1-yl)-4-[2-(4-fluorophenyl)pyrrolidin-1-yl]-6-(1-methylethyl)-5,6-dihydro-7H-pyrrolo[3,4-d]pyrimidin-7-one], the IC50 [1] is reported as 3600 nM and the IC50 [2] is reported as 4950 nM.
For CC(=O)N1CCN(c2nc(N[C@H](C)c3cccc(C(F)(F)F)c3F)c3c(n2)C(=O)N(C(C)C)C3)CC1 [Example 187, (R)-2-(4-acetylpiperazin-1-yl)-4-(1-(2-fluoro-3-(trifluoromethyl)phenyl)ethylamino)-6-isopropyl-5H-pyrrolo[3,4-d]pyrimidin-7(6H)-one], the IC50 [1] was 96 nM and the IC50 [2] was 117 nM.
CCOc1ccc(CC(C)(C)Nc2nc(N3CCN(C(C)=O)CC3)nc3c2CN(C(C)C)C3=O)cc1 [Example 198, 2-(4-acetylpiperazin-1-yl)-4-(1-(4-ethoxyphenyl)-2-methylpropan-2-ylamino)-6-isopropyl-5H-pyrrolo[3,4-d]pyrimidin-7(6H)-one] showed an IC50 [1] of 640 nM and an IC50 [2] of 1230 nM.
CC(=O)N1CCN(c2nc3c(c(N(C)Cc4cc5ccccc5c(C)n4)n2)CN(C(C)C)C3=O)CC1 [Example 263, 2-(4-acetylpiperazin-1-yl)-6-isopropyl-4-(methyl((1-methylisoquinolin-3-yl)methyl)amino)-5H-pyrrolo[3,4-d]pyrimidin-7(6H)-one] was tested, and the IC50 [1] was 94 nM and the IC50 [2] was 85 nM.
Molecule CC(=O)N1CCN(c2nc(N[C@H](C)c3cccc(OC(F)F)c3)c3c(n2)C(=O)N(C(C)C)C3)CC1 [Example 181, (R)-2-(4-acetylpiperazin-1-yl)-4-(1-(3-(difluoromethoxy)phenyl)ethylamino)-6-isopropyl-5H-pyrrolo[3,4-d]pyrimidin-7(6H)-one] has an IC50 [1] of 320 nM and an IC50 [2] of 175 nM.
With CC(=O)N1CCN(c2nc3c(c(N(C)C(C)c4ccc5ncccc5c4)n2)CN(C(C)C)C3=O)CC1 (single isomer, unassigned) [Example 261, 2-(4-acetylpiperazin-1-yl)-6-isopropyl-4-(methyl(1-(quinolin-6-yl)ethyl)amino)-5H-pyrrolo[3,4-d]pyrimidin-7(6H)-one] the IC50 [1] was 64 nM and the IC50 [2] was 71.1 nM.
Molecule COc1ccc(C2CCCN2c2nc(N3CCN(C(C)=O)CC3)nc3c2CN(C(C)C)C3=O)cc1C (stereo not drawn) [Example 295, 2-(4-acetylpiperazin-1-yl)-4-[2-(4-methoxy-3-methylphenyl)pyrrolidin-1-yl]-6-(1-methylethyl)-5,6-dihydro-7H-pyrrolo[3,4-d]pyrimidin-7-one] has an IC50 [1] of 730 nM and an IC50 [2] of 824 nM.
In the case of CCOc1ccc([C@@H](C)N(C)c2nc(N3CCN(C(C)=O)CC3)nc3c2CN(C(C)C)C3=O)cc1F [Example 262, (R)-2-(4-acetylpiperazin-1-yl)-4-((1-(4-ethoxy-3-fluorophenyl)ethyl)(methyl)amino)-6-isopropyl-5H-pyrrolo[3,4-d]pyrimidin-7(6H)-one], the IC50 [1] is reported as 85 nM and the IC50 [2] is reported as 84.5 nM.
With CC(=O)N1CCN(c2nc3c(c(N(C)Cc4cc5ccc(Cl)cc5cn4)n2)CN(C(C)C)C3=O)CC1 [Example 341, 2-(4-acetylpiperazin-1-yl)-4-(((7-chloroisoquinolin-3-yl)methyl)(methyl)amino)-6-isopropyl-5H-pyrrolo[3,4-d]pyrimidin-7(6H)-one] the IC50 [2] was 29.2 nM.
With CC(=O)N1CCN(c2nc3c(c(N4CCCC4c4ccc(C)c(C)c4)n2)CN(C(C)C)C3=O)CC1 (stereo not drawn) [Example 298, 2-(4-acetylpiperazin-1-yl)-4-[2-(3,4-dimethylphenyl)pyrrolidin-1-yl]-6-(1-methylethyl)-5,6-dihydro-7H-pyrrolo[3,4-d]pyrimidin-7-one] the IC50 [2] was 454 nM.
With COc1cc(OC(C)C)ccc1CNc1nc(N2CCN(C(C)=O)CC2)nc2c1CN(C(C)C)C2=O [Example 337, 2-(4-acetylpiperazin-1-yl)-4-(4-isopropoxy-2-methoxybenzylamino)-6-isopropyl-5H-pyrrolo[3,4-d]pyrimidin-7(6H)-one] the IC50 [2] was 79.5 nM.
For CCOc1ccc(CNc2nc(N3CCN(C(C)=O)CC3)nc3c2CN(C(C)C)C3=O)c(OC)c1 [Example 335, 2-(4-acetylpiperazin-1-yl)-4-(4-ethoxy-2-methoxybenzylamino)-6-isopropyl-5H-pyrrolo[3,4-d]pyrimidin-7(6H)-one], the IC50 [2] was 225 nM.
For CC(=O)N1CCN(c2nc(N[C@H](C)c3ccc(CO)cc3)c3c(n2)C(=O)N(C(C)C)C3)CC1 [Example 332, (R)-2-(4-acetylpiperazin-1-yl)-4-(1-(4-(hydroxymethyl)phenyl)ethylamino)-6-isopropyl-5H-pyrrolo[3,4-d]pyrimidin-7(6H)-one], the IC50 [2] was > 30000 nM.
With CC(=O)N1CCN(c2nc3c(c(N(C)Cc4ccc5c(c4)OC(F)(F)O5)n2)CN(C(C)C)C3=O)CC1 [Example 360, 2-(4-acetylpiperazin-1-yl)-4-(((2,2-difluorobenzo[d][1,3]dioxol-5-yl)methyl)(methyl)amino)-6-isopropyl-5H-pyrrolo[3,4-d]pyrimidin-7(6H)-one] the IC50 [2] was > 30000 nM.
Work on CC(=O)N1CCN(c2nc3c(c(N(C)Cc4cc5cc(Cl)ccc5cn4)n2)CN(C(C)C)C3=O)CC1 [Example 348, 2-(4-acetylpiperazin-1-yl)-4-(((6-chloroisoquinolin-3-yl)methyl)(methyl)amino)-6-isopropyl-5H-pyrrolo[3,4-d]pyrimidin-7(6H)-one] yielded an IC50 [2] of 2720 nM.
CC(=O)N1CCN(c2nc(N[C@H](C)c3ccc(C4CC4)cc3)c3c(n2)C(=O)N(C(C)C)C3)CC1 [Example 192, (R)-2-(4-acetylpiperazin-1-yl)-4-(1-(4-cyclopropylphenyl)ethylamino)-6-isopropyl-5H-pyrrolo[3,4-d]pyrimidin-7(6H)-one] gave an IC50 [2] of 102 nM.
CC(=O)N1CCN(c2nc3c(c(N(C)Cc4cc5cc(F)ccc5cn4)n2)CN(C(C)C)C3=O)CC1 [Example 349, 2-(4-acetylpiperazin-1-yl)-4-(((6-fluoroisoquinolin-3-yl)methyl)(methyl)amino)-6-isopropyl-5H-pyrrolo[3,4-d]pyrimidin-7(6H)-one] showed an IC50 [2] of 1050 nM.
